Experimental data taken from ChEMBL document CHEMBL1201862, “PubChem BioAssay data set” (2004).
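Method: 48-hour compound exposure of cells in 96-well plates, five concentrations, linear interpolation of endpoints. GI50: concentration for 50% inhibition of growth.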 Active and inactive are the calls of the source. Rule as the data show it: active = GI50 up to about 1.1 µM and inactive = higher.

Legend:
Experiment in all cases: growth of human tumour cells (NCI), 48 h
U-251 = test system: U-251
KM12 = test system: KM12
OVCAR-3 = test system: OVCAR-3
MOLT-4 = test system: MOLT-4
SK-MEL-28 = test system: SK-MEL-28
IGROV-1 = test system: IGROV-1
BT-549 = test system: BT-549
UO-31 = test system: UO-31
K562 = test system: K562
A498 = test system: A498
CCRF-CEM = test system: CCRF-CEM
A549 = test system: A549
LOX IMVI = test system: LOX IMVI
SNB-19 = test system: SNB-19
HOP-62 = test system: HOP-62
HCT-116 = test system: HCT-116
OVCAR-4 = test system: OVCAR-4
786-0 = test system: 786-0
SF-268 = test system: SF-268
COLO 205 = test system: COLO 205

Measured: GI50

O=C(Oc1ccc2c(c1)CN(Cc1ccccc1)CO2)c1ccccc1
inactive: U-251 17.3 µM | KM12 20.7 µM | OVCAR-3 15.4 µM | MOLT-4 10.7 µM | SK-MEL-28 21.4 µM | IGROV-1 13.3 µM | BT-549 18.5 µM | UO-31 17.7 µM | K562 17.6 µM | A498 17.3 µM | CCRF-CEM 10.6 µM | A549 19.8 µM | LOX IMVI 17.1 µM | SNB-19 18.7 µM | HOP-62 18.4 µM | HCT-116 16 µM | OVCAR-4 15.7 µM | 786-0 16.9 µM | SF-268 17.3 µM | COLO 205 16.9 µM

CC(C)CSCC1OC(n2cnc3c(N)nccc32)C(O)C1O (stereo not given)
inactive: U-251 > 100 µM | KM12 > 100 µM | OVCAR-3 > 100 µM | MOLT-4 > 87.5 µM | SK-MEL-28 > 100 µM | IGROV-1 > 100 µM | BT-549 > 100 µM | UO-31 > 100 µM | K562 > 75 µM | A498 > 100 µM | CCRF-CEM > 100 µM | A549 > 100 µM | LOX IMVI > 100 µM | SNB-19 > 100 µM | HOP-62 > 100 µM | HCT-116 > 100 µM | OVCAR-4 > 100 µM | 786-0 > 100 µM | SF-268 > 100 µM | COLO 205 > 86.1 µM

Cc1nc2ccccc2c(=O)n1NC(=O)c1ccccc1O
inactive: U-251 > 100 µM | KM12 > 100 µM | OVCAR-3 > 100 µM | MOLT-4 > 100 µM | SK-MEL-28 > 100 µM | IGROV-1 > 100 µM | BT-549 > 100 µM | UO-31 > 100 µM | K562 > 100 µM | A498 > 100 µM | CCRF-CEM > 100 µM | A549 > 100 µM | LOX IMVI > 100 µM | SNB-19 > 100 µM | HOP-62 > 100 µM | HCT-116 > 100 µM | OVCAR-4 > 100 µM | 786-0 > 100 µM | SF-268 > 100 µM | COLO 205 > 100 µM

NC(=O)CCC(NC(=O)c1c2ccccc2nc2ccccc12)C(=O)O (stereo not given)
inactive: U-251 > 100 µM | KM12 > 100 µM | OVCAR-3 > 100 µM | MOLT-4 > 100 µM | SK-MEL-28 > 100 µM | IGROV-1 > 100 µM | BT-549 > 100 µM | UO-31 > 100 µM | K562 > 100 µM | A498 > 100 µM | CCRF-CEM > 100 µM | A549 > 100 µM | LOX IMVI > 100 µM | SNB-19 > 100 µM | HOP-62 > 100 µM | HCT-116 > 100 µM | OVCAR-4 > 100 µM | 786-0 > 100 µM | SF-268 > 100 µM | COLO 205 > 100 µM

CCOC(=O)Nc1ccc2c(c1)N(C(=O)CCN(CC)CC)c1ccccc1S2 [ETHACIZINE]
inactive: U-251 26.6 µM | KM12 15.5 µM | OVCAR-3 30 µM | MOLT-4 22.9 µM | SK-MEL-28 28.5 µM | IGROV-1 40.5 µM | BT-549 28.1 µM | UO-31 27.5 µM | K562 25.8 µM | A498 23.4 µM | CCRF-CEM 34.3 µM | A549 34.3 µM | LOX IMVI 17.6 µM | SNB-19 47 µM | HOP-62 33.9 µM | HCT-116 17.6 µM | OVCAR-4 43.6 µM | 786-0 24.4 µM | SF-268 27.8 µM | COLO 205 20.5 µM

COc1ccc(/C(Nc2ccccc2)=C(\CCl)c2ccccc2)cc1OC
inactive: U-251 6.53 µM | KM12 57.1 µM | OVCAR-3 35.7 µM | MOLT-4 29.6 µM | SK-MEL-28 82 µM | IGROV-1 > 100 µM | BT-549 33.2 µM | UO-31 37.2 µM | K562 15.7 µM | A498 > 100 µM | CCRF-CEM 17.3 µM | A549 44.6 µM | LOX IMVI 10.1 µM | SNB-19 > 100 µM | HOP-62 > 100 µM | HCT-116 17.7 µM | OVCAR-4 35.7 µM | 786-0 55.8 µM | SF-268 97.1 µM | COLO 205 71.6 µM

O=[N+]([O-])C(=C(Nc1cccc2cccnc12)Nc1cccc2cccnc12)C(Cl)=C(Cl)Cl
inactive: U-251 55.1 µM | KM12 45.2 µM | OVCAR-3 27.3 µM | MOLT-4 74.1 µM | SK-MEL-28 > 56.9 µM | IGROV-1 3.98 µM | BT-549 30.1 µM | UO-31 > 100 µM | K562 27.9 µM | A498 > 100 µM | CCRF-CEM 34 µM | A549 > 79.8 µM | LOX IMVI 50.4 µM | SNB-19 > 96.2 µM | HOP-62 > 100 µM | HCT-116 45 µM | OVCAR-4 34 µM | 786-0 > 71.3 µM | SF-268 42.9 µM | COLO 205 31 µM

CCOc1ccc(/C(C=O)=C(\Cl)c2ccc(OC)cc2)cc1
inactive: U-251 > 57.7 µM | KM12 56.6 µM | OVCAR-3 > 100 µM | MOLT-4 5.48 µM | SK-MEL-28 > 100 µM | IGROV-1 > 100 µM | BT-549 > 100 µM | UO-31 > 57.1 µM | K562 12.5 µM | A498 > 100 µM | CCRF-CEM 5.24 µM | A549 18.2 µM | LOX IMVI 14.2 µM | SNB-19 > 91.8 µM | HOP-62 46.7 µM | HCT-116 > 83.8 µM | OVCAR-4 9.82 µM | 786-0 > 100 µM | SF-268 > 100 µM | COLO 205 > 51.5 µM

CC[C@H](C)[C@H]1NC(=O)[C@@H](NC(=O)[C@@H](CC(C)C)N(C)C(=O)C2CCCN2C(=O)[C@H](C)O)[C@@H](C)OC(=O)[C@H](Cc2ccc(OC)cc2)N(C)C(=O)[C@@H]2CCCN2C(=O)[C@H](CCCCNC(=O)OCc2ccccc2)NC(=O)[C@H](C)C(=O)[C@H](C(C)C)OC(=O)C[C@@H]1O (stereo not given in full)
inactive: U-251 3.55 µM | KM12 4.73 µM | OVCAR-3 4.01 µM | MOLT-4 4.79 µM | SK-MEL-28 12.2 µM | IGROV-1 7.74 µM | BT-549 7.93 µM | UO-31 23.4 µM | K562 7.29 µM | A498 > 25 µM | CCRF-CEM 6.46 µM | A549 3.9 µM | LOX IMVI 7.4 µM | SNB-19 2.66 µM | HOP-62 6.65 µM | HCT-116 3.28 µM | OVCAR-4 5.47 µM | 786-0 5.56 µM | SF-268 3.91 µM | COLO 205 3.91 µM

O=C(C1OC1c1ccc(F)cc1)C12CC3CC(CC(C3)C1)C2 (stereo not given)
inactive: U-251 11.4 µM | KM12 15.7 µM | OVCAR-3 14.9 µM | MOLT-4 15.8 µM | SK-MEL-28 24.4 µM | IGROV-1 19 µM | BT-549 15.6 µM | UO-31 20.9 µM | K562 17.6 µM | A498 28.2 µM | CCRF-CEM 6.95 µM | A549 21 µM | LOX IMVI 2.85 µM | SNB-19 33.4 µM | HOP-62 27 µM | HCT-116 5.98 µM | OVCAR-4 13.8 µM | 786-0 15.2 µM | SF-268 22.4 µM | COLO 205 16 µM
